Here are results for 1 compound from US12064509B2, “Enema for rectal application” (Dr. Falk Pharma GmbH, priority 2015, dated 2024).

Series [1] relates to patients with active ulcerative colitis. In words: Placebo-controlled randomized double-blind multicenter parallel group comparative study (Japic CTI-132294), rectal budesonide foam. It counts as in vivo, human. As to the method: Dose responsiveness, efficacy and safety are investigated for patients with active ulcerative colitis when budesonide 2 mg is rectally administered once a day or twice a day for 6 weeks by a double-blind comparative study with placebo as a control (clinical trial number: Japic CTI-132294). For the trial, an aerosol with fixed dose injection type for rectal injection (rectal foaming agent) is used as a test drug, in which 25 mL (1.35 g) of white creamy foam containing 2 mg of budesonide is released by one injection. As a remission induction therapeutic agent of ulcerative colitis in active phase where the lesion is confined to the rectum and sigmoid colon, the aerosol for rectal injection is approved in Europe at a dosage and dose of budesonide 2 mg once a day (trade name: Budenofalk 2 mg/dose rectal foam, manufactured by Dr. Falk Pharma GmbH). […] The subjects are ulcerative colitis patients in active phase, and are divided into a group administered the test drug once a day (hereinafter, once a day group, 54 cases), a group administered the test drug twice a day (hereafter, twice a day group, 55 cases), and a group administered the control drug (hereinafter, placebo group, 56 cases). The test drug or control drug is rectally administered twice a day (once in the morning and once in the evening), after defecation, if possible. However, for the once a day group of test drug, a control drug is administered in the morning and a test drug is administered in the evening. The number of injections per dose is one, the administration period is 6 weeks, and the drug is administered until the evening before the evaluation. The dose of budesonide in each group is 2 mg/day for the once a day group, 4 mg/day for the twice a day group, and 0 mg/day for the placebo group. Furthermore, in order to exclude patients whose symptoms improve due to the action of rectal administration (improvement example due to placebo effect) or patients who develop complaints resulting from rectal administration, a pre-observation period in which the control drug is administered twice a day (once in the morning and once in the evening) for one week under a single-blind test is set prior to this administration. […] The point estimate of the odds ratio for the placebo group (95% confidence interval on both sides) in the logistic regression model with model as main effect model, remission rate as objective variable, and administration group and assignment factor as explanatory variables is 3.994 (1.734 to 9.711) in the once a day group, and 3.674 (1.594 to 8.930) in the twice a day group. The lower limit value of 95% confidence interval on both sides exceeds 1 in both groups. […] In addition, the difference point estimate (95% confidence interval on both sides) from the placebo group is 22.8% (4.3% to 39.3%) in the once a day group, 30.5% (12.3% 46.0%) in the twice a day group. Significant differences are observed in the once a day group and twice a day group as compared with the placebo group. The results are illustrated in Table 1 and FIG. 1. In the table and figure, “budesonide once a day administration group” illustrates the result of once a day group, and “budesonide twice a day administration group” illustrates the result of twice a day group, respectively. Patients with MMDAI endoscopic score of 0 are evaluated as mucosal healing. […] In addition, the difference point estimate (95% confidence interval on both sides) from the placebo group is 18.1% (4.8% to 31.3%) in the once a day group, 40.9% (25.2% to 54.2%) in the twice a day group. Significant differences are observed in the once a day group and twice a day group as compared with the placebo group. […]

The test system is the same in series [2]. The series is described as above. It counts as in vivo, human. The source holds these as a separate data set.
Where [3] appears, read: 2 mg once or twice a day, 6 weeks.
The mark [4] stands for this setting: budesonide 2 mg once a day, 6 weeks.
[5] abbreviates: budesonide 2 mg twice a day, 6 weeks.
Setting [6] is: once a day group, 55 analysis target cases.
Setting [7] is: twice a day group, 56 analysis target cases.

For the compound `CCCC1O[C@@H]2C[C@H]3[C@@H]4CCC5=CC(=O)C=C[C@]5(C)[C@H]4[C@@H](O)C[C@]3(C)[C@]2(C(=O)CO)O1` (mixture of isomers) [Budesonide, (+)-[(RS)-16α,17α-Butylidenedioxy-11β,21-dihydroxy-1,4-pregnadiene-3,20-dione]], in series [1] (setting [3]), the “adverse events due to administration of the test drug” value is “serum cortisol decrease and serum corticotropin decrease occurs”; the “serious adverse events or severe adverse events” value is on record as “are not occurred”. The “incidence of adverse events, twice a day group compared with once a day group” value in series [1] (2 mg per dose, 6 weeks) is reported as “increased”. In addition, the “tolerability to patients of ulcerative colitis” value in series [1] (2 mg rectal administration once a day or twice a day for 6 weeks) was “acceptable”. For the same compound, in series [1] (setting [4]), the “mucosal healing rate (proportion of subjects with MMDAI endoscopic score of 0)” value turned out to be 23.6% and the “mucosal remission rate (proportion of subjects with MMDAI endoscopic score of 1 or less)” value was determined as 69.1%. In addition, the “remission rate (MMDAI: bloody stool score 0, endoscopic score 1 or less, stool frequency score 0 or decrease of 1 point or more from week 0)” value in series [1] (budesonide 2 mg rectal foam once a day, 6 weeks) is listed as 50.9%. For the same compound, the “remission rate (MMDAI: bloody stool score 0, endoscopic score 1 or less, stool frequency score 0 or decrease of 1 point or more from week 0)” value in series [1] (budesonide 2 mg rectal foam twice a day, 6 weeks) is on record as 48.2%. In series [1] (setting [5]), the “mucosal healing rate (proportion of subjects with MMDAI endoscopic score of 0)” value turned out to be 46.4% and the “mucosal remission rate (proportion of subjects with MMDAI endoscopic score of 1 or less)” value stood at 76.8%. Further, in series [1] (once a day group, 6 weeks), the “mucosal healing rate, point estimate of proportion difference from placebo group” value was 18.1%; the “mucosal remission rate, point estimate of proportion difference from placebo group” value was 22.8%; the “point estimate of the odds ratio versus the placebo group, mucosal healing rate (logistic regression)” value is 5.143; the “point estimate of the odds ratio versus the placebo group, remission rate (logistic regression)” value is given as 3.994. Moreover, the “incidence of adverse events related to glucocorticoids” value in series [1] (twice a day group compared with once a day group) is recorded as “increase in the incidence of adverse events related to glucocorticoids is not observed”. Also, in series [1] (twice a day group, 6 weeks), the “mucosal healing rate, point estimate of proportion difference from placebo group” value is given as 40.9%; the “mucosal remission rate, point estimate of proportion difference from placebo group” value was 30.5%; the “point estimate of the odds ratio versus the placebo group, mucosal healing rate (logistic regression)” value is reported as 15.553; the “point estimate of the odds ratio versus the placebo group, remission rate (logistic regression)” value is 3.674. For the same compound, in series [2] (setting [6]), the “Case (subjects in mucosal remission, endoscopic score 1 or less)” value is listed as 38 and the “Case (subjects with mucosal healing, endoscopic score 0)” value was determined as 13. Also, in series [2] (setting [7]), the “Case (subjects in mucosal remission, endoscopic score 1 or less)” value stood at 43 and the “Case (subjects with mucosal healing, endoscopic score 0)” value is 26.
